Results from the supplement of paper PMC8967900.

Experiments:
Assay in all cases: selective drug sensitivity score (sDSS, relative to normal bone marrow) (sDSS (score)); higher = more potent and effective on the cell line relative to normal bone marrow cells
Details in all cases: 72 h
ALL-PO = test system: ALL-PO
COG-LL-317 = test system: COG-LL-317
COG-LL-319h = test system: COG-LL-319h
COG-LL-332h = test system: COG-LL-332h
COG-LL-402h = test system: COG-LL-402h
HAL-01 = test system: HAL-01
KASUMI-2 = test system: KASUMI-2
KASUMI-9 = test system: KASUMI-9
MHH-CALL-4 = test system: MHH-CALL-4
MOLT-14 = test system: MOLT-14
MOLT-4 = test system: MOLT-4
NALM-16 = test system: NALM-16
NALM-6 = test system: NALM-6
P12-ICHIKAWA = test system: P12-ICHIKAWA
PEER = test system: PEER
PF-382 = test system: PF-382
REH = test system: REH
SUP-B15 = test system: SUP-B15
TANOUE = test system: TANOUE
TMD5 = test system: TMD5
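Further: ALL cell lines in 384-well plates, five doses spanning 10,000-fold, each plate scaled between vehicle and 100 µmol/L benzalkonium chloride controls, sDSS an adapted area-under-curve metric.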

Cc1cn(-c2cc(NC(=O)c3ccc(C)c(Nc4nccc(-c5cnccn5)n4)c3)cc(C(F)(F)F)c2)cn1 [Radotinib] (top concentration 10000 nM)
selective drug sensitivity score (ALL-PO): 3.7 | selective drug sensitivity score (COG-LL-317): 0 | selective drug sensitivity score (COG-LL-319h): 13.2 | selective drug sensitivity score (COG-LL-332h): 19.6 | selective drug sensitivity score (COG-LL-402h): 0 | selective drug sensitivity score (HAL-01): 0 | selective drug sensitivity score (KASUMI-2): 0 | selective drug sensitivity score (KASUMI-9): 9.2 | selective drug sensitivity score (MHH-CALL-4): 0 | selective drug sensitivity score (MOLT-14): 0.6 | selective drug sensitivity score (MOLT-4): 1.2 | selective drug sensitivity score (NALM-16): 0 | selective drug sensitivity score (NALM-6): 0.9 | selective drug sensitivity score (P12-ICHIKAWA): 0.7 | selective drug sensitivity score (PEER): 19.3 | selective drug sensitivity score (PF-382): 0.2 | selective drug sensitivity score (REH): 0 | selective drug sensitivity score (SUP-B15): 36.2 | selective drug sensitivity score (TANOUE): 1.3 | selective drug sensitivity score (TMD5): 22

Cn1nccc1Nc1nccc(-c2ccn([C@H](CO)c3ccc(Cl)c(F)c3)c(=O)c2)n1 [Ravoxertinib] (top concentration 10000 nM)
selective drug sensitivity score (ALL-PO): 3.6 | selective drug sensitivity score (COG-LL-317): 4.8 | selective drug sensitivity score (COG-LL-319h): 10.2 | selective drug sensitivity score (COG-LL-332h): 4.1 | selective drug sensitivity score (COG-LL-402h): 3.4 | selective drug sensitivity score (HAL-01): 1.9 | selective drug sensitivity score (KASUMI-2): 4.2 | selective drug sensitivity score (KASUMI-9): 5.3 | selective drug sensitivity score (MHH-CALL-4): 11 | selective drug sensitivity score (MOLT-14): 0.1 | selective drug sensitivity score (MOLT-4): -1.2 | selective drug sensitivity score (NALM-16): -1.6 | selective drug sensitivity score (NALM-6): 4 | selective drug sensitivity score (P12-ICHIKAWA): 2.1 | selective drug sensitivity score (PEER): -0.3 | selective drug sensitivity score (PF-382): 1.2 | selective drug sensitivity score (REH): 1.2 | selective drug sensitivity score (SUP-B15): 12.6 | selective drug sensitivity score (TANOUE): -3.2 | selective drug sensitivity score (TMD5): 3.2

C/C=C1\NC(=O)[C@H]2CSSCC/C=C/[C@H](CC(=O)N[C@H](C(C)C)C(=O)N2)OC(=O)[C@H](C(C)C)NC1=O [Romidepsin] (top concentration 1000 nM)
selective drug sensitivity score (ALL-PO): 6.96 | selective drug sensitivity score (COG-LL-317): 0.76 | selective drug sensitivity score (COG-LL-319h): 1.16 | selective drug sensitivity score (COG-LL-332h): 1.36 | selective drug sensitivity score (COG-LL-402h): 8.76 | selective drug sensitivity score (HAL-01): -17.5 | selective drug sensitivity score (KASUMI-2): 5.06 | selective drug sensitivity score (KASUMI-9): 3.16 | selective drug sensitivity score (MHH-CALL-4): 3.06 | selective drug sensitivity score (MOLT-14): 2.16 | selective drug sensitivity score (MOLT-4): 1.76 | selective drug sensitivity score (NALM-16): 0.76 | selective drug sensitivity score (NALM-6): 2.66 | selective drug sensitivity score (P12-ICHIKAWA): 1.66 | selective drug sensitivity score (PEER): 2.06 | selective drug sensitivity score (PF-382): 1.96 | selective drug sensitivity score (REH): 1.26 | selective drug sensitivity score (SUP-B15): 4.16 | selective drug sensitivity score (TANOUE): -11 | selective drug sensitivity score (TMD5): 3.46

CNCc1ccc(-c2[nH]c3cc(F)cc4c3c2CCNC4=O)cc1 [Rucaparib] (top concentration 10000 nM)
selective drug sensitivity score (ALL-PO): -0.58 | selective drug sensitivity score (COG-LL-317): 6.52 | selective drug sensitivity score (COG-LL-319h): 6.32 | selective drug sensitivity score (COG-LL-332h): 1.52 | selective drug sensitivity score (COG-LL-402h): 2.42 | selective drug sensitivity score (HAL-01): 4.32 | selective drug sensitivity score (KASUMI-2): 3.02 | selective drug sensitivity score (KASUMI-9): 2.72 | selective drug sensitivity score (MHH-CALL-4): 5.92 | selective drug sensitivity score (MOLT-14): 1.62 | selective drug sensitivity score (MOLT-4): -0.58 | selective drug sensitivity score (NALM-16): -0.58 | selective drug sensitivity score (NALM-6): 0.62 | selective drug sensitivity score (P12-ICHIKAWA): -0.58 | selective drug sensitivity score (PEER): -0.08 | selective drug sensitivity score (PF-382): -0.58 | selective drug sensitivity score (REH): 1.52 | selective drug sensitivity score (SUP-B15): 5.42 | selective drug sensitivity score (TANOUE): -0.58 | selective drug sensitivity score (TMD5): -0.38

CC(C)(C)c1cnc(CSc2cnc(NC(=O)C3CCNCC3)s2)o1 [SNS-032] (top concentration 10000 nM)
selective drug sensitivity score (ALL-PO): -6.74 | selective drug sensitivity score (COG-LL-317): 1.66 | selective drug sensitivity score (COG-LL-319h): -2.24 | selective drug sensitivity score (COG-LL-332h): -3.54 | selective drug sensitivity score (COG-LL-402h): 3.06 | selective drug sensitivity score (HAL-01): -8.04 | selective drug sensitivity score (KASUMI-2): -5.44 | selective drug sensitivity score (KASUMI-9): -0.54 | selective drug sensitivity score (MHH-CALL-4): -1.04 | selective drug sensitivity score (MOLT-14): -4.74 | selective drug sensitivity score (MOLT-4): -4.84 | selective drug sensitivity score (NALM-16): -6.04 | selective drug sensitivity score (NALM-6): -2.44 | selective drug sensitivity score (P12-ICHIKAWA): -5.04 | selective drug sensitivity score (PEER): -4.94 | selective drug sensitivity score (PF-382): -5.34 | selective drug sensitivity score (REH): -5.44 | selective drug sensitivity score (SUP-B15): -3.14 | selective drug sensitivity score (TANOUE): -14 | selective drug sensitivity score (TMD5): -4.54

Cc1c(C(=O)Nc2ccc(N3C[C@@H](C)O[C@@H](C)C3)nc2)cccc1-c1ccc(OC(F)(F)F)cc1 [Sonidegib] (top concentration 10000 nM)
selective drug sensitivity score (ALL-PO): 3.98 | selective drug sensitivity score (COG-LL-317): -1.02 | selective drug sensitivity score (COG-LL-319h): 4.98 | selective drug sensitivity score (COG-LL-332h): -1.42 | selective drug sensitivity score (COG-LL-402h): -3.92 | selective drug sensitivity score (HAL-01): -3.92 | selective drug sensitivity score (KASUMI-2): -1.42 | selective drug sensitivity score (KASUMI-9): 1.48 | selective drug sensitivity score (MHH-CALL-4): 2.28 | selective drug sensitivity score (MOLT-14): 0.38 | selective drug sensitivity score (MOLT-4): 1.08 | selective drug sensitivity score (NALM-16): -3.92 | selective drug sensitivity score (NALM-6): 0.98 | selective drug sensitivity score (P12-ICHIKAWA): 0.38 | selective drug sensitivity score (PEER): 0.88 | selective drug sensitivity score (PF-382): 2.28 | selective drug sensitivity score (REH): 0.98 | selective drug sensitivity score (SUP-B15): 1.68 | selective drug sensitivity score (TANOUE): -2.42 | selective drug sensitivity score (TMD5): -3.92

CNC(=O)c1cc(Oc2ccc(NC(=O)Nc3ccc(Cl)c(C(F)(F)F)c3)cc2)ccn1 [Sorafenib] (top concentration 1000 nM)
selective drug sensitivity score (ALL-PO): 5.5 | selective drug sensitivity score (COG-LL-317): 0 | selective drug sensitivity score (COG-LL-319h): 0 | selective drug sensitivity score (COG-LL-332h): 0.1 | selective drug sensitivity score (COG-LL-402h): 0 | selective drug sensitivity score (HAL-01): 2.9 | selective drug sensitivity score (KASUMI-2): 0 | selective drug sensitivity score (KASUMI-9): 0 | selective drug sensitivity score (MHH-CALL-4): 0 | selective drug sensitivity score (MOLT-14): 0 | selective drug sensitivity score (MOLT-4): 0 | selective drug sensitivity score (NALM-16): 0 | selective drug sensitivity score (NALM-6): 0.2 | selective drug sensitivity score (P12-ICHIKAWA): 0 | selective drug sensitivity score (PEER): 0.1 | selective drug sensitivity score (PF-382): 1.3 | selective drug sensitivity score (REH): 0.2 | selective drug sensitivity score (SUP-B15): 0 | selective drug sensitivity score (TANOUE): 0 | selective drug sensitivity score (TMD5): 0

CN1CCN(c2nc(C3=C(c4c[nH]c5ccccc45)C(=O)NC3=O)c3ccccc3n2)CC1 [Sotrastaurin] (top concentration 10000 nM)
selective drug sensitivity score (ALL-PO): 5 | selective drug sensitivity score (COG-LL-317): 0 | selective drug sensitivity score (COG-LL-319h): 4.7 | selective drug sensitivity score (COG-LL-332h): 2 | selective drug sensitivity score (COG-LL-402h): 5.2 | selective drug sensitivity score (HAL-01): 2.3 | selective drug sensitivity score (KASUMI-2): 2.8 | selective drug sensitivity score (KASUMI-9): 0.5 | selective drug sensitivity score (MHH-CALL-4): 4.2 | selective drug sensitivity score (MOLT-14): -2 | selective drug sensitivity score (MOLT-4): -1.7 | selective drug sensitivity score (NALM-16): 1.8 | selective drug sensitivity score (NALM-6): 0.8 | selective drug sensitivity score (P12-ICHIKAWA): -1.3 | selective drug sensitivity score (PEER): 4 | selective drug sensitivity score (PF-382): -1.9 | selective drug sensitivity score (REH): 4.8 | selective drug sensitivity score (SUP-B15): 2.2 | selective drug sensitivity score (TANOUE): -2.3 | selective drug sensitivity score (TMD5): 2.9

Cc1cc(C(C)Nc2ccccc2)c2nc(N3CCOCC3)cc(=O)n2c1 (stereo not given) [TGX-221] (top concentration 10000 nM)
selective drug sensitivity score (ALL-PO): 1.16 | selective drug sensitivity score (COG-LL-317): -1.64 | selective drug sensitivity score (COG-LL-319h): -1.64 | selective drug sensitivity score (COG-LL-332h): -1.54 | selective drug sensitivity score (COG-LL-402h): 1.76 | selective drug sensitivity score (HAL-01): 7.86 | selective drug sensitivity score (KASUMI-2): -1.64 | selective drug sensitivity score (KASUMI-9): 1.16 | selective drug sensitivity score (MHH-CALL-4): -1.44 | selective drug sensitivity score (MOLT-14): -1.14 | selective drug sensitivity score (MOLT-4): 0.66 | selective drug sensitivity score (NALM-16): -1.64 | selective drug sensitivity score (NALM-6): 3.56 | selective drug sensitivity score (P12-ICHIKAWA): -1.64 | selective drug sensitivity score (PEER): -0.74 | selective drug sensitivity score (PF-382): -0.84 | selective drug sensitivity score (REH): -0.84 | selective drug sensitivity score (SUP-B15): 0.36 | selective drug sensitivity score (TANOUE): -0.94 | selective drug sensitivity score (TMD5): -1.64
